Data on one compound can be found in patent US20090105322A1, “PHARMACEUTICAL COMPOSITION COMPRISING VALSARTAN” (priority 2003, published 2009).

Data set [1] relates to rapid pacing induced heart failure. The data set is described as follows: Rapid pacing induced heart failure model in mini pigs. As to conditions: valsartan in combination with an ACE inhibitor, compared to either ACE inhibition or AT1-receptor blockade alone. The class given is in vivo. From the text:
The effect of valsartan alone and in combination with an ACE inhibitor was studied in a model of rapid pacing induced heart failure in mini pigs.

Data set [2] relates to AF occurrence in patients with symptomatic HF (EF<40% and dilated ventricle-LVIDD>2.9). The data set is described as follows: Occurrence of AF from adverse event reports in the Val-HeFT trial. The class given is in vivo, human. Here is the method:
The occurrence of AF was evaluated based on adverse event reports in the patients with symptomatic heart failure (ejection fraction<40% and dilated ventricle-left ventricular internal diastolic diameter (LVIDD)>2.9) enrolled in the Val-HeFT trial. The Val-HeFT trial is set forth in Example 2. The occurrence of AF was evaluated based on adverse event reports in the patients with symptomatic HF (EF<40% and dilated ventricle-LVIDD>2.9) enrolled in the Val-HeFT trial (set forth in Example 2). Patients were randomized to valsartan or placebo on top of the prescribed treatments for heart failure. During the 23 months of follow-up of the study, AF was reported in 328/5000 patients (6.6%), 132/2506 (5.27%) in the valsartan allocated patients and 196/2494 (7.86%) in those allocated to placebo (p=0.0002). […] This is a multicountry, randomized, double-blind, forced titration, parallel, placebo-controlled trial. Patients will be stratified according to their use of beta blockers at randomization. At Visit 2, patients who meet the randomization criteria will be stratified according to their use of beta blockers and randomized to receive either valsartan 40 mg b.i.d. or placebo (Level 1). After 2 weeks of treatment (Visit 3), patients will be titrated up to receive either valsartan 80 mg b.i.d. or placebo, respectively (Level 2). The criteria for titration are given below. Following another 2 week treatment period (Visit 4), patients will again be titrated up to receive valsartan 160 mg b.i.d. or placebo, respectively (Level 3). The criteria for titration are given below. Patients not tolerating the highest dose of valsartan will be titrated down to the next lower dose after 2 weeks of treatment (Visit 5).

The test system of data set [3] is cardiac hemodynamics in CHF patients (NYHA Class II-IV). Put plainly: Protocol 103: chronic central hemodynamic effects in non-ACE inhibitor treated CHF patients. The class given is in vivo, human. As to conditions: 40, 80 and 160 mg b.i.d. for 4 weeks; preliminary trial results. Here is the method: Two Phase II studies (Protocols 103 and 104) have been recently completed. Protocol 103 is a randomized, double-blind, placebo-controlled, parallel group, dose ranging trial to determine the chronic central hemodynamic effects of valsartan 40 mg b.i.d., 80 mg b.i.d., 160 mg b.i.d. and lisinopril 10 mg o.d. administered for 4 weeks to non-ACE inhibitor treated CHF patients (NYHA Class II-IV).

For data set [4], the system named is systolic and diastolic blood pressure in patients with essential arterial hypertension. Put plainly: Treatment of patients with essential arterial hypertension. Type of data set: in vivo, human. The following applies: 80 mg o.d.; compared with ACE inhibitors and other antihypertensive medications. The text has this: Valsartan (CGP 48933) is an orally active, potent and specific competitive Ang II antagonist at the level of the AT1-receptor subtype.

`CCCCC(=O)N(Cc1ccc(-c2ccccc2-c2nnn[nH]2)cc1)[C@H](C(=O)O)C(C)C` [valsartan, (S)-N-(1-carboxy-2-methyl-prop-1-yl)-N-pentanoyl-N-[2; (1H-tetrazol-5-yl)biphenyl-4-yl-methyl]amine]: in data set [1], the “Left ventricular function and geometry, and myocyte inotropic response” value is “further beneficial effects on left ventricular function and geometry, and myocyte inotropic response”. Further, in data set [2] (23 months of follow-up, valsartan on top of prescribed heart failure treatments, vs placebo 7.86%, p=0.0002), the “AF reported (percent of allocated patients)” value was 5.27%. For the same compound, in data set [2] (23 months of follow-up, valsartan on top of prescribed heart failure treatments, vs placebo 196/2494), the “AF reported (patients with AF / patients allocated)” value is given as 132/2506. In data set [2] (valsartan added to prescribed therapy (93% ACE-inhibitors, 35% beta-blockers)), the “Reduction of the incidence of AF” value is about 35%. In data set [2] (valsartan treatment as independent predictor, 95% CI: 0.52-0.82), the “RR for AF occurrence (logistic regression analysis)” value was 0.65. For the same compound, in data set [3], the “Cardiac hemodynamics versus placebo” value was “clinically relevant and statistically significant improvements in cardiac hemodynamics versus placebo”. For the same compound, in data set [4], the “Decreases in systolic and diastolic blood pressure” value is “comparable to those achieved by treatment with ACE inhibitors and other antihypertensive medications”; the Tolerability profile entry is given as “more favorable tolerability profile”.
